“Also recorded” adds a separate entry of the source.
Assays:
[1] = Toxic or side effects on mice on gavage administration; type: in vivo; details: BS 36, 90 and 180 mg/kg
Method: Accordingly, the above dosages were selected as the dosages for administration in this experiment,
All the animals were observed once daily during the experiment for death or dying, feces, ingestion, mental state and behavior and activity. Abnormalities were recorded in time. All the animals were weighed once before grouping and once before each dose.

[2] = tested on: bleomycin-induced mouse lung disease model; assay: Assay of lung tissues for hydroxyproline content, 24-h modeling; type: in vivo, C57 mice; details: day 35 of administration
Method: Animals of 24-h modeling were randomly divided into 5 groups according to the table below, 3 animals per control group and 5 animals per test group.
Drug administration began 24 h or 7 d after modeling. […] The day of the first administration was counted as D1, the next day as D2, and so forth. The normal groups and Model groups were given 200 µL of normal saline daily by gavage administration.
[…] 2 mL of pre-cooled normal saline was added. The tissues were cut into as many pieces as possible and centrifuged at 2000 rpm/min for 2 min, and the supernatant was discarded. • 2. To the precipitate was added 1 mL of RIPA lysis buffer (mixed protease inhibitor Cocktail was added in a ratio of 1:100 before use, and the resulting mixture was preserved on ice). […]
(II) Protein concentration assay by BCA • 1. […] A proper BCA working solution was freshly prepared according to the quantity of the standard substance and samples. […] The plate was incubated at 37° C. for 30 min, and the absorbance at 570 nm was measured on a microplate reader. The sample protein concentration was calculated from the standard curve.
(III) HYP level assay • 1. […] To each well was added 50 µL of terminating solution, and the absorbance was immediately measured at a wavelength of 450 nm. […]

Row | SMILES | Toxic or side effects (in words) [1] | HY7P, hydroxyproline content in the lungs ([2]; BS 90 mg/kg gavage daily) | HY7P, hydroxyproline content in the lungs ([2]; Dex 1-1.5 mg/kg i.p. every two days)
1 | O=c1c2ccccc2[se]n1CCCCn1[se]c2ccccc2c1=O [BS, 1,4-[bis(1,2-benzisoselenazol-3(2H)-one)]butane] | no toxic and side effects; also recorded: no significant toxic or side effects | 2.17 ± 0.19 µg/mL | 
2 | C[C@@H]1C[C@H]2[C@@H]3CCC4=CC(=O)C=C[C@]4(C)[C@@]3(F)[C@@H](O)C[C@]2(C)[C@@]1(O)C(=O)CO [Dex, dexamethasone, reference compound] |  |  | 2.25 ± 0.31 µg/mL
